Source: US20200179286A1, “CARRIER STRUCTURE AND DRUG CARRIER, AND PREPARING METHODS THEREOF” (GENE'E TECH CO., LTD., priority 2018, published 2020)
Values after ≈ are worked out from the molar mass of the structure shown.

System: H. pylori
Assay: in vitro inhibition of H. pylori suspension (OD450 after 48 hours)
Type: cell-based
Settings: Helicobacter pylori, read-out: minimum inhibitory concentration
Method: FIGS. 7 and 8 show the results of the in vitro application of the drug carrier according to some embodiments of this invention. In the in vitro experiment, a suspension of H. pylori was obtained and respectively added with amoxicillin (with a minimum inhibitory concentration of about 0.5 μg/ml and the concentration was fixed at 0.5 μg/ml), samples 1, 5, A and E above. Next, the suspensions of H. pylori, after the addition of amoxicillin and the above samples, were further cultured for 48 hours, the OD450 of the suspension each was measured to determine the effect of inhibiting H. pylori. […] Through this test, it can be clearly seen that both the carrier structure and the drug carrier of the disclosure have the ability to inhibit H. pylori, especially the drug carrier with appropriate active substances has an obvious effect.

With `CC1(C)S[C@@H]2[C@H](NC(=O)[C@H](N)c3ccc(O)cc3)C(=O)N2[C@H]1C(=O)O` [amoxicillin] the MIC was ~0.5 µg/mL (≈ 1.37 µM).
